Measurements reported in US11141462B2, “Method for the treatment or prevention of osteoarthritis” (Chondropeptix B.V., priority 2016, dated 2021).

System: OA articular chondrocytes
Assay: OA chondrocyte phenotype gene expression screening of BMP-7 peptides (RT-qPCR)
Type: cell-based, human
Set-up: key to COX-2 / COL2A1 / SOX9: [+] denotes a significantly increased expression of chondrogenic marker genes SOX9 and COL2A1, or a significantly decreased expression of OA phenotypic marker COX-2 in OA articular chondrocytes, in comparison to untreated OA articular chondrocytes; key to IL-6 / ADAMTS5 / COL10A / BAPX1/NKX3.2 / ALP / RUNX2: —: [-] denotes the absence of a significant effect or a significantly decreased expression of chondrogenic marker genes BAPX1/NKX3.2, or a significantly increased expression of OA phenotypic markers IL-6, ADAMTS5, COL10A, ALP and RUNX2 in OA articular chondrocytes, in comparison to untreated OA articular chondrocytes
Details: for suppression of the OA chondrocyte phenotype: independent of the tested concentration (1000, 100, 10 and 1 nM were tested); for COL2A1 / COX-2 / SOX9: Table 5; for activity in the assays as employed herein (table 2): peptides with additional amino acid N-terminal of position 100
Protocol: (§1) FIG. 2: The action of 20-mer peptides (10 nM) of SEQ ID NO: 2-17 (peptides with 1 or 2 amino acids intervals (18-19 amino acid overlap)) and a random peptide with a sequence according to SEQ ID NO: 49 on the expression of ADAMTS5 was determined on a validated pool of passage 2 OA human articular chondrocytes (n=18) and compared to full-length recombinant BMP-7 (1 nM). Samples were harvested after 24 hours and analyzed for indicated genes by RT-qPCR (normalized for 28S rRNA expression and relative to control conditions (no peptide exposure)). In the graphs, numbers on the x-axis represent individual peptides according to their SEQ ID NO's, error bars represent mean±SEM, statistical differences were calculated (one-way ANOVA with bonferroni correction) to control condition. *=p<0.05 lower than control condition for ADAMTS5. Random peptide is a peptide according to SEQ ID NO: 49.
as §1, with “3:” for “2:”, “ALP” for “ADAMTS5”, “ALP.” for “ADAMTS5.”
as §1, with “4:” for “2:”, “BAPX1/NKX3.2” for “ADAMTS5”, “BAPX1/NKX3.2.” for “ADAMTS5.”
as §1, with “5:” for “2:”, “COL10A1” for “ADAMTS5”, “COL10A1.” for “ADAMTS5.”
FIG. 6: The action of 20-mer peptides (10 nM) of SEQ ID NO: 2-17 (peptides with 1 or 2 amino acids intervals (18-19 amino acid overlap)) and a random peptide with a sequence according to SEQ ID NO: 49 on the expression of IL-6 was determined on a validated pool of passage 2 OA human articular chondrocytes (n=18) and compared to full-length recombinant BMP-7 (1 nM). […]

[1] = Table 2 (FIG. 2: 10 nM, 24 hours, RT-qPCR, 28S rRNA normalized), vs untreated OA articular chondrocytes
[2] = Table 2 (FIG. 3: 10 nM, 24 hours, RT-qPCR, 28S rRNA normalized), vs untreated OA articular chondrocytes
[3] = Table 2 (FIG. 4: 10 nM, 24 hours, RT-qPCR, 28S rRNA normalized), vs untreated OA articular chondrocytes
[4] = Table 2 (FIG. 5: 10 nM, 24 hours, RT-qPCR, 28S rRNA normalized), vs untreated OA articular chondrocytes
[5] = Table 2 (FIG. 6: 10 nM, 24 hours, RT-qPCR, 28S rRNA normalized), vs untreated OA articular chondrocytes
[6] = Table 2 (FIG. 7: 10 nM, 24 hours, RT-qPCR, 28S rRNA normalized), vs untreated OA articular chondrocytes
[7] = gene expression in OA articular chondrocytes vs untreated
[8] = Table 1, gene expression in OA articular chondrocytes vs untreated

Substance | ADAMTS5 [1] | ALP [2] | BAPX1/NKX3.2 [3] | COL10A [4] | IL-6 [5] | RUNX2 [6] | further results
APTQLNAISVLYFDDSSNVI (listed as Homo sapiens) [SEQ ID NO: 9] |  |  |  |  |  |  | suppression of the OA chondrocyte phenotype: efficiently suppressed the OA chondrocyte phenotype
4 (ETVPKPSSAPTQLNAISVLY; listed as Homo sapiens) [compound 4] | — | — | — | — | — | — | 
3 (NPETVPKPSSAPTQLNAISV; listed as Homo sapiens) [compound 3] | — | — | — | — | — | — | 
13 (SVLYFDDSSNVILKKYRNMV; listed as Homo sapiens) [compound 13] | + | + | + | + | + | + | COL2A1 [7]: +; COX-2 [7]: +; SOX9 [7]: +
PKPSSAPTQLNAISVLYFDD (listed as Homo sapiens) [SEQ ID NO: 6] |  |  |  |  |  |  | suppression of the OA chondrocyte phenotype: efficiently suppressed the OA chondrocyte phenotype
AISVLYFDDSSNVILKKYRN (listed as Homo sapiens) [SEQ ID NO: 12] |  |  |  |  |  |  | suppression of the OA chondrocyte phenotype: efficiently suppressed the OA chondrocyte phenotype
FINPETVPKPSSAPTQLNAI (listed as Homo sapiens) [SEQ ID NO: 2] |  |  |  |  |  |  | activity in the assays as employed herein (table 2): lost its activity
FDDSSNVILKKYRNMVVRAS (listed as Homo sapiens) [SEQ ID NO: 15] |  |  |  |  |  |  | suppression of the OA chondrocyte phenotype: efficiently suppressed the OA chondrocyte phenotype
16 (DSSNVILKKYRNMVVRASGS; listed as Homo sapiens) [compound 16] | + | + | + | + | + | — | COL2A1 [7]: +; COX-2 [7]: +; SOX9 [7]: +
24 (AIVQTLVHFINPETVPKPCC; listed as Homo sapiens) [compound 24] |  |  |  |  |  |  | ADAMTS5 [8]: —; ALP [8]: —; BAPX1/NKX3.2 [8]: —; COL10A [8]: —; IL-6 [8]: —; RUNX2 [8]: —
18 (PKPSSAPTQLNAISVLYFDDSSNVILKKYRNMVVRASGSH; listed as Homo sapiens) [compound 18] | + | + | + | + | + | + | 
21 (SSDQRQACKKHELYVSFRDL; listed as Homo sapiens) [compound 21] |  |  |  |  |  |  | ADAMTS5 [8]: —; ALP [8]: —; BAPX1/NKX3.2 [8]: —; COL10A [8]: —; IL-6 [8]: —; RUNX2 [8]: —
23 (CEGECAFPLNSYMNATNHAI; listed as Homo sapiens) [compound 23] |  |  |  |  |  |  | ADAMTS5 [8]: —; ALP [8]: —; BAPX1/NKX3.2 [8]: —; COL10A [8]: —; IL-6 [8]: —; RUNX2 [8]: —
SSAPTQLNAISVLYFDDSSN (listed as Homo sapiens) [SEQ ID NO: 8] |  |  |  |  |  |  | suppression of the OA chondrocyte phenotype: efficiently suppressed the OA chondrocyte phenotype
14 (LYFDDSSNVILKKYRNMVVR; listed as Homo sapiens) [compound 14] | + | + | + | + | + | — | COL2A1 [7]: +; COX-2 [7]: +; SOX9 [7]: +
20 (KTPKNQEALRMANVAENSSSSSDQRQACKK; listed as Homo sapiens) [compound 20] |  |  |  |  |  |  | ADAMTS5 [8]: —; ALP [8]: —; BAPX1/NKX3.2 [8]: —; COL10A [8]: —; IL-6 [8]: —; RUNX2 [8]: —
5 (VPKPSSAPTQLNAISVLYFD; listed as Homo sapiens) [compound 5] | — | — | — | — | — | + | 
25 (CCAPTQLNAISVLYFDDSSN; listed as Homo sapiens) [compound 25] |  |  |  |  |  |  | ADAMTS5 [8]: —; ALP [8]: —; BAPX1/NKX3.2 [8]: —; COL10A [8]: —; IL-6 [8]: —; RUNX2 [8]: —
LNAISVLYFDDSSNVILKKY (listed as Homo sapiens) [SEQ ID NO: 11] |  |  |  |  |  |  | suppression of the OA chondrocyte phenotype: efficiently suppressed the OA chondrocyte phenotype
NPETVPKPSSAPTQLNAISV (listed as Homo sapiens) [SEQ ID NO: 3] |  |  |  |  |  |  | activity in the assays as employed herein (table 2): lost its activity
7 (KPSSAPTQLNAISVLYFDDS; listed as Homo sapiens) [compound 7] | + | + | + | + | + | + | COL2A1 [7]: +; COX-2 [7]: +; SOX9 [7]: +
12 (AISVLYFDDSSNVILKKYRN; listed as Homo sapiens) [compound 12] | + | + | + | + | + | + | COL2A1 [7]: +; COX-2 [7]: +; SOX9 [7]: +
LYFDDSSNVILKKYRNMVVR (listed as Homo sapiens) [SEQ ID NO: 14] |  |  |  |  |  |  | suppression of the OA chondrocyte phenotype: efficiently suppressed the OA chondrocyte phenotype
1 (FINPETVPKPSSAPTQLNAISVLYFDDSSNVILKKYRNMVVRASGSH; listed as Homo sapiens) [compound 1] | — | — | — | — | — | — | 
9 (APTQLNAISVLYFDDSSNVI; listed as Homo sapiens) [compound 9] | + | + | + | - | + | + | COL2A1 [7]: +; COX-2 [7]: +; SOX9 [7]: +
ETVPKPSSAPTQLNAISVLY (listed as Homo sapiens) [SEQ ID NO: 4] |  |  |  |  |  |  | activity in the assays as employed herein (table 2): lost its activity
